# Laboratory results published in the NIST ThermoML archive (doi:10.1016/j.jct.2015.11.009).
# Numbers after ± are expanded uncertainties.
# What was measured:
# [1] = refractive index (Na D-line) (dimensionless); xn = mol fraction of the nth substance listed; conditions: 100 kPa, Liquid, Standard Abbe refractometry, x1 = 1
# [2] = xn = mol fraction of the nth substance listed; conditions: 100 kPa, Liquid, x1 = 1; for speed of sound: Frequency=3 MHz, Sing-around technique in a fixed-path interferometer; for mass density: Vibrating tube method
# [3] = refractive index (Na D-line) (dimensionless); conditions: 100 kPa, Liquid, Standard Abbe refractometry
# [4] = 100 kPa, Liquid; for speed of sound: Frequency=3 MHz, Sing-around technique in a fixed-path interferometer; for mass density: Vibrating tube method
smiles,measurement,setting,value
CCCCn1cc[n+](C)c1.F[B-](F)(F)F [1-butyl-3-methylimidazolium tetrafluoroborate] + O=C1CCCN1,refractive index,[1]; 298.15 K,1.42058 ± 0.00087
same,refractive index,[1]; 303.15 K,1.41913 ± 0.00087
same,refractive index,[1]; 308.15 K,1.41764 ± 0.00087
same,refractive index,[1]; 313.15 K,1.41621 ± 0.00087
same,refractive index,[1]; 318.15 K,1.41472 ± 0.00087
same,refractive index,[1]; 323.15 K,1.4133 ± 0.00087
same,speed of sound,[2]; 298.15 K,1565.1 ± 1.6 m/s
same,mass density,[2]; 298.15 K,1198.78 ± 1.1 kg/m3
same,speed of sound,[2]; 303.15 K,1553.2 ± 1.6 m/s
same,mass density,[2]; 303.15 K,1195.18 ± 1.1 kg/m3
same,speed of sound,[2]; 308.15 K,1541.3 ± 1.6 m/s
same,mass density,[2]; 308.15 K,1191.6 ± 1.1 kg/m3
same,speed of sound,[2]; 313.15 K,1529.7 ± 1.6 m/s
same,mass density,[2]; 313.15 K,1188.04 ± 1.1 kg/m3
same,speed of sound,[2]; 318.15 K,1518.2 ± 1.6 m/s
same,mass density,[2]; 318.15 K,1184.5 ± 1.1 kg/m3
same,speed of sound,[2]; 323.15 K,1506.8 ± 1.6 m/s
same,mass density,[2]; 323.15 K,1180.98 ± 1.1 kg/m3
O=C1CCCN1 [2-pyrrolidinone],refractive index,[3]; 298.15 K,1.48591 ± 0.00086
same,refractive index,[3]; 303.15 K,1.48403 ± 0.00086
same,refractive index,[3]; 308.15 K,1.48218 ± 0.00086
same,refractive index,[3]; 313.15 K,1.48033 ± 0.00086
same,refractive index,[3]; 318.15 K,1.47841 ± 0.00086
same,refractive index,[3]; 323.15 K,1.47649 ± 0.00086
same,speed of sound,[4]; 298.15 K,1634.4 ± 1.4 m/s
same,mass density,[4]; 298.15 K,1107.16 ± 1 kg/m3
same,speed of sound,[4]; 303.15 K,1618 ± 1.4 m/s
same,mass density,[4]; 303.15 K,1103.07 ± 1 kg/m3
same,speed of sound,[4]; 308.15 K,1601.6 ± 1.4 m/s
same,mass density,[4]; 308.15 K,1098.99 ± 1 kg/m3
same,speed of sound,[4]; 313.15 K,1585.4 ± 1.4 m/s
same,mass density,[4]; 313.15 K,1094.9 ± 1 kg/m3
same,speed of sound,[4]; 318.15 K,1570.4 ± 1.4 m/s
same,mass density,[4]; 318.15 K,1090.82 ± 1 kg/m3
same,speed of sound,[4]; 323.15 K,1553.5 ± 1.4 m/s
same,mass density,[4]; 323.15 K,1086.75 ± 1 kg/m3
